Data on six molecules can be found in ChEMBL document CHEMBL1147452, “A new approach to the synthesis of optically active alkylated adenine derivatives” (Bioorg Med Chem Lett, 2004).

Assay [1] deals with Cowpox virus. Description: Inhibitory concentration required against Cowpox virus in Vero cell culture. The class given is functional, organism-based.
Assay [2] relates to Vaccinia virus. Description: Inhibitory concentration required against vaccinia virus in Vero cell culture. The class given is functional, organism-based. Particulars: Orthopoxvirus vaccinia.
Assay [3] has as its system Monkeypox virus. Nature of the assay: Inhibitory concentration required against Monkeypox virus in Vero cell culture. The class given is functional, organism-based.
Assay [4] is described as follows: Cytotoxic concentration at which cell viability was reduced by 50%. The class given is functional.
The test system of assay [5] is Variola virus. Description: Inhibitory concentration required against replication of small pox virus (strain India 3a) in Vero cells. The class given is functional, organism-based.

By IC50 is commonly meant the concentration needed to halve the response being measured. Read a low IC50 as greater potency in that assay. A word on the CC50: it is the concentration giving 50% cytotoxicity. Higher therefore signals better tolerance by the cells. Turning to `Nc1ncnc2c1ncn2C[C@H]1COP(=O)(O)CO1`, the IC50 in assay [1] stood at 61 µM; in assay [2] it was 41 µM; in assay [3], 48 µM. For the same molecule, the CC50 in assay [4] is above 350 µM.

In assay [5], `Nc1ncnc2c1ncn2C[C@H](O)C(=O)O` had an IC50 of 91 µM. That is a double-digit micromolar value.

As for `Nc1ncnc2c1ncn2C[C@@H]1COP(=O)(O)CO1`, the half-maximal inhibitory concentration (IC50) in assay [1], in assay [2] and in assay [3] was above 350 µM each time. In assay [4], this molecule registered a CC50 above 350 µM.

Turning to `Nc1ncnc2c1ncn2C[C@@H](O)CO`, the IC50 in assay [1], in assay [2] and in assay [3] was above 500 µM each time. The molecule also showed a CC50 in assay [4] above 500 µM.

As for `COC(CO)O[C@@H](CO)Cn1cnc2c(N)ncnc21` (some centres undefined), the IC50 in assay [5] was 62 µM.

For the molecule `Nc1ncnc2c1ncn2C[C@H](O)CO` [(S)-DHPA], the IC50 in assay [1] came out at 49 µM; in assay [2] it was 34 µM; in assay [3], 54 µM; in assay [5], 41 µM. Moreover, in assay [4], the CC50 is above 500 µM.
